Measurements as given in patent US8580940B2, “Photoporphyrinogen oxidase having activity of imparting resistance against acifluorfen and gene thereof” (Nippon Soda Co., Ltd., priority 2005, dated 2013).

Assays:
[1] = biological target: AT strain (transgenic Synechocystis strain expressing Arabidopsis-derived protoporphyrinogen oxidase); test: microbe, parasite or virus in culture; format: cell-based, Synechocystis PCC6803; details: for IC50: Synechocystis, 144 h, read-out: pI50 Value AT strain
Experimental: (§1) The AT strain obtained in Example 1 and ATΔslr1790 strain, in which slr1790 gene was disrupted by the method described in Example 4, were used. Aforedescribed BG11 liquid medium was employed. With a view to preventing reverse mutation or loss of the gene, either chloramphenicol or kanamycin was added to the medium at a final concentration of 25 μM for the AT strain and ATΔslr1790 strain, respectively, because a chloramphenicol resistance gene is introduced with protoporphyrinogen oxidase into AT strain and a kanamycin resistance gene is introduced into ATΔslr1790 strain when disrupting the gene. AT strain and ATΔslr1790 strain were precultured with shaking in BG11 liquid medium, collected during the growth phase, and suspended in fresh BG11 liquid medium supplemented with an antibiotic so that A730 became 0.1, which was used for investigation.
(§2) An active pharmaceutical ingredient of a test chemical was dissolved in DMSO and added to wells so that final concentration of agent became from 1.0×10^−4 M to 1.0×10^−9.5 M for each well (the final concentration of DMSO is 0.5%). The test includes shaking culture using a 96-well plate in a scale of 100 μl in each well at 30° C. of incubation temperature under 1000 lux of light intensity. Turbidity was measured 6 days after the start of the test and compared with solvent sample to calculate pI50 value. pI50 value=−log(concentration to inhibit 50% activity(M)) (Activity of Herbicidal Treatment)

Amaranthus lividus = test: Herbicidal activity, foliage treatment; format: in vivo; details: foliage spray, two weeks after the treatment, index 0-10
Experimental: Seeds of Amaranthus lividus were sowed on the surface of soil filled in a pot (200 cm^2) followed by covering with a little soil and then grown to 5 to 10 cm of plant length in a greenhouse. Each of water-diluted test chemical solutions was sprayed to foliage part of Amaranthus lividus with a small spray in an amount corresponding to the spray amount of 1000 litter/ha to achieve predetermined amount of agent. Cultivation was carried out in a greenhouse. Then herbicidal effect on Amaranthus lividus was examined two weeks after the treatment according to an examination criterion below.
Values 1, 3, 5, 7, and 9 indicate the intermediate value of […], 4 and 6, 6 and 8, and 8 and 10 respectively.

[2] = biological target: ATΔslr1790 strain (AT strain in which slr1790 gene was disrupted); test: Test for inhibitory potency of protoporphyrinogen oxidase inhibitor, growth (turbidity) of ATΔslr1790 strain; format: cell-based, Synechocystis PCC6803; details: turbidity 6 days after start, 30° C., 1000 lux, BG11 liquid medium, pI50 = -log(concentration to inhibit 50% activity (M)); for IC50: Synechocystis, 144 h
Experimental: as §1, §2

[3] = tested on: transformed Arabidopsis slr lineage (slr1790-introduced); test: Acifluorfen resistance test, degree of necrosis on leaves, slr1790-introduced transformants; format: in vivo; details: acifluorfen 10 μM, 5 μl dropped onto leaves, 7 days after treatment, by eye on a 0 to 5 scale (5 complete death, 0 no effect)
Experimental: (§3) For transformants in which gene introduction was confirmed, acifluorfen resistance effect was tested. Acifluorfen was prepared as emulsion to contain 4% of effective component by mixing and solubilizing dimethylformamide and polyoxyethylene sorbitan surfactant. This was diluted with water to make the final concentration of acifluorfen 10 μM, 5 μl of which was dropped using a micropippet onto leaves of Arabidopsis wild type and transformed Arabidopsis slr lineage, in which gene introduction was confirmed, both grown to 1 to 2 cm in height in a growth chamber.
(§4) Study was continued until 7 days after the treatment with the chemicals and degree of necrosis was evaluated by eye (on a 0 to 5 scale, 0 means no effect).
(§5) Evaluation was done by eye on a 0 to 5 scale, with 5 meaning complete death and 0 meaning no effect.

Arabidopsis wild type = test: Acifluorfen resistance test, degree of necrosis on leaves, wild type; format: in vivo; details: acifluorfen 10 μM, 5 μl dropped onto leaves, 7 days after treatment, by eye on a 0 to 5 scale (5 complete death, 0 no effect)
Experimental: as §3, §4, §5

For `C#CCN1C(=O)COc2cc(F)c(N3C(=O)C4=C(CCCC4)C3=O)cc21` [flumioxazine], the “pI50 Value AT strain” value ([1]; turbidity 6 days after start, 30° C., 1000 lux, BG11 liquid medium, pI50 = -log(concentration to inhibit 50% activity (M))) was 4>, the “Herbicidal activity (foliage treatment) (herbicide index for Amaranthus lividus, 16 g ai/ha)” value (Amaranthus lividus) was 10 (100%) and the “pI50 Value ATΔslr1790 strain” value [2] was 6.7.
`CCOC(=O)COc1cc(-c2nn(C)c(OC(F)F)c2Cl)c(F)cc1Cl` [pyraflufenethyl, pyraflufen-ethyl] was tested, and the IC50 [1] was greater than 100 µM, the “Herbicidal activity (foliage treatment) (herbicide index for Amaranthus lividus, 16 g ai/ha)” value (Amaranthus lividus) was 10 (100%) and the IC50 [2] was 2.51e-07 M.
`O=C(O)c1cc(Oc2ccc(C(F)(F)F)cc2Cl)ccc1[N+](=O)[O-]` [acifluorfen] was tested, and the IC50 [1] was greater than 100 µM, the “Herbicidal activity (foliage treatment) (herbicide index for Amaranthus lividus, 16 g ai/ha)” value (Amaranthus lividus) was 7 and the IC50 [2] was 3.16e-05 M. For the same compound, the “degree of necrosis, slr 52” value ([3]; transformant slr 52) was 1, the “degree of necrosis, slr 146” value ([3]; transformant slr 146) was 1 and the “degree of necrosis, Arabidopsis Wild Type” value (Arabidopsis wild type) was 4.
`c1cc[n+]2c(c1)-c1cccc[n+]1CC2` [diquat] showed an IC50 [1] of 6.31 µM and an IC50 [2] of 1e-05 M.
